Test results reported in patent US11046753B2, “Antibody composition and buffer system therefor” (INNOVA BIOSCIENCES LTD, priority 2013, dated 2021).
Entries after “also recorded” stand apart in the source; their conditions may differ.

Columns and labels:
[1] = Effect of additives on the thiolation reagent 2-iminothiolane (thiol release, DTNB, A405); details: 50 mM additive, pH 8.0, 30 minutes
Protocol: 20 μl of 2 mM 2-iminothiolane was added to each well and mixed quickly and the absorbance values were read at 405 nm every minute for 30 minutes using a Tecan Infinite M200 plate reader with i-Control 1.4 software. […] In control reaction, there is a steady linear increase in absorbance as the reagent is hydrolysed by water. […] The rising baseline can be attributed to the known sensitivity of 2-iminothiolane to hydrolysis at alkaline pH values.

[2] = NHS ester (fluorescein) conjugation of rabbit IgG in presence of additive, dye to protein ratio; details: 50 mM additive, sodium phosphate pH 8.0
Protocol: Conjugates were desalted on PD10 columns equilibrated in TBS buffer and absorbance values of the eluted solutions were determined at 280 nm and 495 nm. The ratio of moles dye to moles of protein for antibody dye conjugates in the presence of various additives is shown in FIG. 4.

[3] = Carbodiimide (EDC)-mediated conjugation of goat anti-rabbit IgG to carboxylated gold nanoparticles in presence of additive, read by lateral flow assay; details: pH 5
Protocol: Molecules were tested initially at pH 5 in EDC-mediated reactions with carboxylated gold particles (InnovaCoat GOLD, Innova Biosciences). Potentially interesting molecules from this screening exercise were further evaluated in NHS ester reactions, isothiocyanate reactions and thiolation reactions involving iminothiolane. All of these reactions are widely used in the antibody conjugation field and all would be expected to suffer from interference in the presence of glycine.
Lateral flow test strips (4 mm wide) were prepared from nitrocellulose membrane (Millipore Hi Flow plus 90) striped with goat anti-rabbit IgG (test line) and biotin-BSA (control line). Strips were housed in plastic cartridges and samples of gold conjugate (80 ul) were added to the sample pad. Cartridges were allowed to stand for 30 min and then read using a ESE-Quant GOLD reader—QIAGEN. Each sample was spiked with a fixed amount of streptavidin-gold (Innova biosciences—Product code: 250-0200), which binds to the control line, to check that each test strip had run correctly and that test line data was valid.
10 μg of goat anti-rabbit IgG (GAR) was used per ml of coated 40 nm nanoparticles with carboxyl functionality (InnovaCoat GOLD, Innova Biosciences) at […] in the presence of additives at 50 mM final concentration. Typically reactions were set up with the following additions: 40 μl of 40 nm InnovaCoat (carboxylated) gold nanopartcles, were incubated 5 minutes with 4 μl 0.1 mg/ml GAR, 20 μl water, and 80 μl of 100 mM MES buffer containing 100 mM of additive, pH 5.0. Next, 16 μl of 1 mM EDC was added and after 10 min incubation at 22° C., 20 μl of 10×TBS/1% Tween20 and 20 μl of water was added to give 2 OD conjugate.
Gold conjugates were mixed when required with rabbit IgG ((final concentration 50 ng/ml) at 22° C. Conjugates were 0.2 OD final concentration (i.e. 1/10 dilution from stock conjugates). Samples were run in triplicate on lateral flow test strips as described in Example 1.

[4] = Isothiocyanate (FITC) conjugation of rabbit IgG in presence of additive, dye to protein ratio; details: 50 mM additive, CHES pH 9.0
Protocol: Conjugates were desalted on PD10 columns (GE Healthcare) in TBS buffer and the absorbance values of the eluted solutions were determined at 280 nm and 495 nm. The ratio of moles dye to moles of protein for antibody dye conjugates in the presence of various additives is shown in FIG. 3.

[5] = Lightning-Link fluorescein conjugation of goat anti-rabbit IgG in presence of additive, fluorescence assay; details: 50 mM additive
Protocol: Black 96-well plates (Greiner Bio-One (code 655077)) were incubated with 50 ul rabbit IgG (1 ug/well) overnight at 4° C. The plates were blocked with TBS/0.1% BSA for 1 hour at room temperature and washed five times with TBS (wash buffer). Fluorescent antibody conjugates were serially diluted in TBS/0.1% BSA and 50 ul aliquots were added to wells in triplicate. After incubation at room temperature for 1 hour, the plate was washed five times and fluorescence emission was read in using a Tecan Infinite M200 plate reader with i-Control 1.4 software with the appropriate excitation/emission settings (fluorescein, 490 nm/535 nm; phycoeythrin, 535 nm/575 nm. Fluorescence data was plotted as a function of conjugate dilution. To compare results for additives tested in different experiments the data were transformed into a percentage of a control value (i.e. the signal for conjugate prepared in the absence of any test additive).
Reactions were carried out according to the manufacturer's standard protocol except that the additives were included at up to 50 mM concentration in conjugation reactions of Goat-anti-rabbit IgG using fluorescein Lightning-Link kit (product code 707-0010, Innova Biosciences, UK). Conjugates were tested according to the protocol described in Example 2.

## Glycine
[1]
  release of thiols from 2-iminothiolane versus control: rapid hydrolysis and ring opening; also recorded: reacts rapidly
[2]
  ratio of moles dye to moles of protein versus control, fluorescein NHS ester: substantial interference
[3]
  % of Signal: 94%
  interference in carbodiimide-mediated antibody-gold nanoparticle conjugation reaction: no interference; also recorded: do not interfere; also recorded: does not
[4]
  ratio of moles dye to moles of protein versus control, FITC: significant interference
[5]
  interference in Lightning-Link fluorescein conjugation reaction: significant interference
